Numbers after ± are expanded uncertainties.
Experiment: xn = mol fraction of the nth substance listed
Settings: Liquid, Vibrating tube method

CC12CCC(CC1)C(C)(C)O2 [1,3,3-trimethyl-2-oxabicyclo[2.2.2]octane] + CCCO
mass density [kg/m3]
Settings | 20000 kPa | 25000 kPa | 30000 kPa | 35000 kPa | 40000 kPa
283.15 K, x1 = 0.0499 | 839.5 ± 1 | 842.9 ± 1 | 845.8 ± 1 | 848.9 ± 1 | 851.6 ± 1
283.15 K, x1 = 0.1061 | 853.7 ± 1 | 856.9 ± 1 | 859.8 ± 1 | 862.8 ± 1 | 865.5 ± 1
283.15 K, x1 = 0.2029 | 873.3 ± 1 | 876.4 ± 1 | 879.3 ± 1 | 882.3 ± 1 | 885 ± 1
283.15 K, x1 = 0.3028 | 889.7 ± 1 | 892.8 ± 1 | 895.6 ± 1 | 898.6 ± 1 | 901.4 ± 1
283.15 K, x1 = 0.3955 | 901.8 ± 1 | 905 ± 1 | 907.9 ± 1 | 910.7 ± 1 | 913.5 ± 1
283.15 K, x1 = 0.4938 | 912.4 ± 1 | 915.6 ± 1 | 918.5 ± 1 | 921.3 ± 1 | 924 ± 1
283.15 K, x1 = 0.5904 | 921.2 ± 1 | 924.4 ± 1 | 927.3 ± 1 | 930.1 ± 1 | 932.9 ± 1
283.15 K, x1 = 0.7 | 929.6 ± 1 | 932.8 ± 1 | 935.7 ± 1 | 938.5 ± 1 | 941.2 ± 1
283.15 K, x1 = 0.7915 | 935.7 ± 1 | 938.9 ± 1 | 941.7 ± 1 | 944.6 ± 1 | 947.3 ± 1
283.15 K, x1 = 0.8954 | 941.2 ± 1 | 944.3 ± 1 | 947.2 ± 1 | 950.1 ± 1 | 952.8 ± 1
283.15 K, x1 = 0.9332 | 942.9 ± 1 | 946.1 ± 1 | 949 ± 1 | 951.8 ± 1 | 954.5 ± 1
283.15 K, x1 = 1 | 945.9 ± 1 | 949.1 ± 1 | 952 ± 1 | 954.9 ± 1 | 957.6 ± 1
298.15 K, x1 = 0.0499 | 828.6 ± 1 | 831.8 ± 1 | 835.1 ± 1 | 838.1 ± 1 | 841.2 ± 1.1
298.15 K, x1 = 0.1061 | 842.6 ± 1 | 845.8 ± 1 | 849 ± 1 | 852 ± 1 | 855 ± 1
298.15 K, x1 = 0.2029 | 862 ± 1 | 865.2 ± 1 | 868.4 ± 1 | 871.4 ± 1 | 874.4 ± 1
298.15 K, x1 = 0.3028 | 878.3 ± 1 | 881.6 ± 1 | 884.7 ± 1 | 887.7 ± 1 | 890.6 ± 1
298.15 K, x1 = 0.3955 | 890.5 ± 1 | 893.7 ± 1 | 896.7 ± 1 | 899.8 ± 1 | 902.7 ± 1
298.15 K, x1 = 0.4938 | 901 ± 1 | 904.3 ± 1 | 907.3 ± 1 | 910.3 ± 1 | 913.2 ± 1
298.15 K, x1 = 0.5904 | 909.7 ± 1 | 912.9 ± 1 | 915.9 ± 1 | 918.9 ± 1 | 921.9 ± 1
298.15 K, x1 = 0.7 | 917.9 ± 1 | 921.1 ± 1 | 924.2 ± 1 | 927.1 ± 1 | 930.1 ± 1
298.15 K, x1 = 0.7915 | 923.9 ± 1 | 927.1 ± 1 | 930.2 ± 1 | 933.2 ± 1 | 936.1 ± 1
298.15 K, x1 = 0.8954 | 929.4 ± 1 | 932.6 ± 1 | 935.7 ± 1 | 938.8 ± 1 | 941.6 ± 1
298.15 K, x1 = 0.9332 | 931.1 ± 1 | 934.3 ± 1 | 937.3 ± 1 | 940.3 ± 1 | 943.3 ± 1
298.15 K, x1 = 1 | 934.1 ± 1 | 937.4 ± 1 | 940.5 ± 1 | 943.4 ± 1 | 946.4 ± 1
313.15 K, x1 = 0.0499 | 817.1 ± 1 | 820.8 ± 1 | 824.3 ± 1 | 827.5 ± 1.1 | 830.7 ± 1.1
313.15 K, x1 = 0.1061 | 831 ± 1 | 834.7 ± 1 | 838.1 ± 1 | 841.3 ± 1 | 844.5 ± 1.1
313.15 K, x1 = 0.2029 | 850.4 ± 1 | 854 ± 1 | 857.4 ± 1 | 860.7 ± 1 | 863.9 ± 1
313.15 K, x1 = 0.3028 | 866.6 ± 1 | 870.2 ± 1 | 873.5 ± 1 | 876.7 ± 1 | 879.8 ± 1
313.15 K, x1 = 0.3955 | 878.6 ± 1 | 882.2 ± 1 | 885.5 ± 1 | 888.7 ± 1 | 891.7 ± 1
313.15 K, x1 = 0.4938 | 889.1 ± 1 | 892.6 ± 1 | 895.9 ± 1 | 899 ± 1 | 902.1 ± 1
313.15 K, x1 = 0.5904 | 897.7 ± 1 | 901.2 ± 1 | 904.5 ± 1 | 907.6 ± 1 | 910.8 ± 1
313.15 K, x1 = 0.7 | 905.8 ± 1 | 909.3 ± 1 | 912.6 ± 1 | 915.8 ± 1 | 918.9 ± 1
313.15 K, x1 = 0.7915 | 911.8 ± 1 | 915.3 ± 1 | 918.6 ± 1 | 921.8 ± 1 | 924.9 ± 1
313.15 K, x1 = 0.8954 | 917.3 ± 1 | 920.8 ± 1 | 924 ± 1 | 927.3 ± 1 | 930.5 ± 1
313.15 K, x1 = 0.9332 | 919.1 ± 1 | 922.5 ± 1 | 925.9 ± 1 | 929.1 ± 1 | 932.2 ± 1
313.15 K, x1 = 1 | 922.3 ± 1 | 925.8 ± 1 | 929.1 ± 1 | 932.4 ± 1 | 935.5 ± 1
328.15 K, x1 = 0.0499 | 805.9 ± 1 | 809.7 ± 1 | 813.3 ± 1 | 816.8 ± 1.1 | 820.2 ± 1.1
328.15 K, x1 = 0.1061 | 819.7 ± 1 | 823.5 ± 1 | 827.1 ± 1 | 830.6 ± 1.1 | 833.9 ± 1.1
328.15 K, x1 = 0.2029 | 838.9 ± 1 | 842.6 ± 1 | 846.3 ± 1 | 849.6 ± 1 | 853.1 ± 1
328.15 K, x1 = 0.3028 | 854.9 ± 1 | 858.6 ± 1 | 862.1 ± 1 | 865.6 ± 1 | 868.9 ± 1
328.15 K, x1 = 0.3955 | 866.9 ± 1 | 870.5 ± 1 | 874 ± 1 | 877.4 ± 1 | 880.9 ± 1
328.15 K, x1 = 0.4938 | 877.2 ± 1 | 880.9 ± 1 | 884.4 ± 1 | 887.9 ± 1 | 891.2 ± 1
328.15 K, x1 = 0.5904 | 885.9 ± 1 | 889.6 ± 1 | 893.1 ± 1 | 896.5 ± 1 | 899.9 ± 1
328.15 K, x1 = 0.7 | 894 ± 1 | 897.7 ± 1 | 901.2 ± 1 | 904.6 ± 1 | 908 ± 1
328.15 K, x1 = 0.7915 | 899.9 ± 1 | 903.7 ± 1 | 907.2 ± 1 | 910.5 ± 1 | 913.9 ± 1
328.15 K, x1 = 0.8954 | 905.5 ± 1 | 909.3 ± 1 | 912.7 ± 1 | 916.2 ± 1 | 919.5 ± 1
328.15 K, x1 = 0.9332 | 907.3 ± 1 | 911 ± 1 | 914.5 ± 1 | 917.9 ± 1 | 921.3 ± 1
328.15 K, x1 = 1 | 910.6 ± 1 | 914.3 ± 1 | 917.9 ± 1 | 921.3 ± 1 | 924.7 ± 1
